Reference: US3946006A, “Tetrahydrothiadiazinethiones” (Sterling Drug Inc., priority 1974, dated 1976)

How the values were obtained:
Assay in all cases: minimal inhibiting concentration (MIC), filter disc agar plate test
Assay type in all cases: cell-based
Chaetomium globosum = settings: C. globosum; Sabouraud agar, three days incubation
Experimental: (§1) The bacteriological effectiveness of the compounds of the invention was determined with reference to minimal inhibiting concentrations, that is, the minimal concentration that will effect complete inhibition of germ growth (MIC). The test procedure is as follows:
(§2) A 1% suspension, botained by homogenizing 500 mg. of the test agent in 50 ml. of 0.5% natrosol solution (natrosol 250 HRPS = hydroxymethylcellulose), is serially diluted with 0.5% natrosol solution to provide suspensions, in sterile test tubes, having concentrations of 0.1, 0.05, 0.01 and 0.005 percent. To ensure accuracy in dilution, the suspensions are mixed with the aid of a mechanical mixer. The dilutions (6 ml.) are added to sterile cups and immediately 10 filter discs (.phi. about 10 mm) are placed on the surface of the liquid in each cup. The filter discs, which slowly sink to the bottom on becoming saturated, are left in the solutions for one hour. 16-Hour old cultures of Escherichia coli, Staphylococcus aureus, Pyoceanus fluorescens and Proteus vulgaris are diluted at the ratio of 1:10 in glucose broth. 1-Week cultures of Penicillium glaucum, Aspergillus niger, Chaetomium globosum, Trichoderma viride, Humicola sp., Scopulariopsis brevicaulis, Pullularia pullulans, Sclerophoma pityophila, Saccharomyces cerevisiae and Candida albicans are harvested by rinsing and diluted 1:10 in nutrient broth.
(§3) Standard II nutrient agar plates, with an addition of lactose and bromothymol blue (BROLAC agar) for bacteria, and Sabouraud agar plates for yeasts and fungi, are dried and labeled (10 Sabouraud agar plates and 4 nutrient agar plates were used per preparation). Of the diluted germ suspensions, 0.05 ml (1 drop) is inoculated onto each plate. Prior to further treatment, the plates are allowed to stand for one-half hour to absorb the germ suspension. Filter discs, corresponding to each of the five dilutions, are placed on the surface of each inoculated plate for each culture (step 1). The plates are examined for zones of inhibition after twenty-four hours incubation in the case of bacteria, and after three days incubation in the case of yeasts and fungi. Antimicrobial activity is indicated by occurance of a zone of inhibition. In the case of bacteria, the purity of the culture can be determined at the same time by lactose fermentation as indicated by color change in the nutrient medium. A visible inhibition ring is designated as negative growth an no inhibition ring as 3+ growth. […] A new dilution series then is prepared, with only one, or at most two, filter discs being placed on the surface of each plate for each culture. Activity is then determined as described above.
(§4) The MIC values, expressed in percent concentration of the test agent, is presented in TAble 1 for compounds of the invention having formula I designated Example 1 (R--O--A = CH2 CH2 OCH3), Example 2 (R--O--A = CH2 CH2 OCH3) and Example 4(R--O--A = CH2 CH2 CH2 OCH2 CH3), and for two known compounds, designated A (3,5-dibenzyl-tetrahydro-2H-1,3,5-thiadiazine-2-thione) and B[3,5-bis(2-hydroxyethyl)-2H-1,3,5-thiadiazine-2-thione].

Penicillium glaucum = settings: P. glaucum; Sabouraud agar, three days incubation
Experimental: as §1, §2, §3, §4

Trichoderma viride = settings: T. viride; Sabouraud agar, three days incubation
Experimental: as §1, §2, §3, §4

Pullularia pullulans = settings: P. pullulans; Sabouraud agar, three days incubation
Experimental: as §1, §2, §3, §4

Candida albicans = settings: C. albicans; Sabouraud agar, three days incubation
Experimental: as §1, §2, §3, §4

Humicola sp. = settings: Sabouraud agar, three days incubation
Experimental: as §1, §2, §3, §4

Pyoceanus fluorescens = settings: P. fluorescens; nutrient agar, 24 hours incubation
Experimental: as §1, §2, §3, §4

Escherichia coli = settings: E. coli; nutrient agar, 24 hours incubation
Experimental: as §1, §2, §3, §4

Aspergillus niger = settings: A. niger; Sabouraud agar, three days incubation
Experimental: as §1, §2, §3, §4

Saccharomyces cerevisiae = settings: S. cerevisiae; Sabouraud agar, three days incubation
Experimental: as §1, §2, §3, §4

Proteus vulgaris = settings: P. vulgaris; nutrient agar, 24 hours incubation
Experimental: as §1, §2, §3, §4

Sclerophoma pityophila = settings: S. pityophila; Sabouraud agar, three days incubation
Experimental: as §1, §2, §3, §4

Staphylococcus aureus = settings: S. aureus; nutrient agar, 24 hours incubation
Experimental: as §1, §2, §3, §4

[1] = test system: Scopulariopsis brevicaulis; settings: S. brevicaulis; Sabouraud agar, three days incubation
Experimental: as §1, §2, §3, §4

Structure (SMILES) | MIC (Chaetomium globosum) | MIC (Penicillium glaucum) | MIC (Trichoderma viride) | MIC (Pullularia pullulans) | MIC (Candida albicans) | MIC (Humicola sp.) | MIC (Pyoceanus fluorescens) | MIC (Escherichia coli) | MIC (Aspergillus niger) | MIC (Saccharomyces cerevisiae) | MIC (Proteus vulgaris) | MIC (Sclerophoma pityophila) | MIC (Staphylococcus aureus) | MIC [1]
OCCN1CSC(=S)N(CCO)C1 [B, 3,5-bis(2-hydroxyethyl)-2H-1,3,5-thiadiazine-2-thione, reference compound] | 1 % conc. | 1 % conc. | 1 % conc. | 0.01 % conc. | 1 % conc. | 0.1 % conc. | 0.1 % conc. | 1 % conc. | 1 % conc. | 0.1 % conc. | 1 % conc. | 0.01 % conc. | 0.05 % conc. | 0.1 % conc.
COCCCN1CSC(=S)N(CCCOC)C1 [Ex. 1, 3,5-Bis(3-methoxypropyl)-tetrahydro-2H-1,3,5-thiadiazine-2-thione] | 0.005 % conc. | 0.005 % conc. | 0.03 % conc. | 0.005 % conc. | 0.05 % conc. | 0.01 % conc. | 0.1 % conc. | 0.1 % conc. | 0.03 % conc. | 0.05 % conc. | 0.1 % conc. | 0.005 % conc. | 0.05 % conc. | 0.005 % conc.
COCCN1CSC(=S)N(CCOC)C1 [Ex. 2, 3,5-Bis(2-methoxyethyl)-tetrahydro-2H-1,3,5-thiadiazine-2-thione] | 0.01 % conc. | 0.05 % conc. | 0.1 % conc. | 0.05 % conc. | 0.05 % conc. | < 0.005 % conc. | 0.1 % conc. | 0.1 % conc. | 0.1 % conc. | 0.01 % conc. | 0.1 % conc. | < 0.005 % conc. | 0.07 % conc. | < 0.005 % conc.
S=C1SCN(Cc2ccccc2)CN1Cc1ccccc1 [A, 3,5-dibenzyl-tetrahydro-2H-1,3,5-thiadiazine-2-thione, reference compound] | > 1 % conc. | > 1 % conc. | > 1 % conc. | > 1 % conc. | > 1 % conc. | > 1 % conc. | 1 % conc. | 1 % conc. | > 1 % conc. | > 1 % conc. | 1 % conc. | > 1 % conc. | 1 % conc. | > 1 % conc.
CCOCCCN1CSC(=S)N(CCCOCC)C1 [Ex. 4, 3,5-Bis(3-ethoxypropyl)-tetrahydro-2H-1,3,5-thiadiazine-2-thione] | – | < 0.003 % conc. | – | < 0.003 % conc. | 0.01 % conc. | – | 0.1 % conc. | 0.1 % conc. | < 0.003 % conc. | < 0.003 % conc. | 0.05 % conc. | < 0.003 % conc. | 0.05 % conc. | –
